Assay results taken from PMC4938718 (Structure (London, England : 1993), 2016).

Legend:
[1] = biological target: T1, HisF subunit of imidazole glycerol phosphate synthase (IGPS) (Thermotoga maritima, UniProt Q9X0C6); experiment: NMR lineshape analysis of titration; format: binding
T1 sequence (Q9X0C6 1-253): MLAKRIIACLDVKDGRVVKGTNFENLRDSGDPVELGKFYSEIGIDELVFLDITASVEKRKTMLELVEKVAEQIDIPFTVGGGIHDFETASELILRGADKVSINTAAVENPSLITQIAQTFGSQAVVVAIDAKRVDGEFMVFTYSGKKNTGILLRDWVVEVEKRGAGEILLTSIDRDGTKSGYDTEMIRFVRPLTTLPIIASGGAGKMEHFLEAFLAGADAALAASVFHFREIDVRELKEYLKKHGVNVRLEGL
T1 sequence (Q9X0C8 1-201 partner): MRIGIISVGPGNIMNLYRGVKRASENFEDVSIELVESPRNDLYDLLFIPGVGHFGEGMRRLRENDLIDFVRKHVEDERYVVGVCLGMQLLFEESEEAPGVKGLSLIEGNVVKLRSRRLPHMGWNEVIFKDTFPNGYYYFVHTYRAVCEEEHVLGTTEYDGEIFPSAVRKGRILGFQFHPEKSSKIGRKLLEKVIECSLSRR

[2] = biological target: T2, HisH subunit of imidazole glycerol phosphate synthase (IGPS) (Thermotoga maritima, UniProt Q9X0C8); experiment: covalent labeling, loss of free Cys thiol confirmed by DTNB assay; format: binding
T2 sequence (Q9X0C8 1-201): T1 sequence (Q9X0C8 1-201 partner)
T2 sequence (Q9X0C6 1-253 partner): T1 sequence (Q9X0C6 1-253)

SMILES	Kd [1] [µM]	covalent labeling, loss of free Cys thiol confirmed by DTNB assay [2]
NC(=O)c1ncn([C@@H]2O[C@H](COP(=O)(O)O)[C@@H](O)[C@H]2O)c1N [AICAR]	1500 ± 200	–
N[C@H](C(=O)O)[C@@H]1CC(Cl)=NO1 [acivicin]	–	Covalent modification of IGPS with the non-hydrolyzable Gln analogue acivicin was achieved by incubating IGPS with two molar equivalents
